Test results: US6602896B1, “p38MAPK inhibitor and uses thereof” (The Board of Trustees of the University of Arkansas, priority 1999, dated 2003)

Columns and labels:
[1] = test system: p42/44^MAPK; details: even at higher concentrations (100 μM); cited from earlier work
[2] = test system: p42/44^MAPK; assay: Western blotting of phospho-p42/44MAPK in HeLa cells; type: cell-based; details: SB202190 (2.5 μg/ml) in 0.5% FBS
Method: Proteins were fractionated by SDS-PAGE with an 10% acrylamide separation gel, and the separated proteins were transferred to nitrocellulose, and processed as described previously (43, 44). Briefly, membranes were incubated in 20 mM Tris-HCl, pH 7.6, 137 mM NaCl, 0.2% v/v Tween-20 (Tris/NaCl/Tween-20) with 5% w/v non-fat dried milk for 1 h, washed in Tris/NaCl/Tween-20 (3×5 min), and incubated for 1 h with primary antibody in Tris/NaCl/Tween-20 containing 1% milk at room temperature for non phospho-specific antibodies and overnight at 4° C. for phospho-specific antibodies. The following dilutions were used for individual antibodies against different proteins: p42/44^MAPK (1:1600); phosphop-42/44^MAPK (1:1000); phosphop-46/54^JNK (1:1000); phospho-p38^MAPK (1:1600); phospho-MEK-1/2 (1:1000); MKP-1 (1:1500). After further washing in Tris/NaCl/Tween-20, membranes were incubated for 1 h with horseradish peroxidase-linked anti-IgG secondary antibody (Bio-Rad, diluted 1:5000), and immunoreactive proteins were detected by ECL as described by the supplier. Quantitative analyses of protein levels were performed by densitometric scanning of the autoradiograms, and are representative of 3 or more independent experiments.

[3] = test system: p46/54^JNK; assay: Immunoblot of phospho-p46/54JNK in HepG2 cells; type: cell-based, human; details: SB202190 2.5 μM
Method: 2×10^5 cells were grown and treated as described in FIG. 1. After the indicated times, equal amounts of cell lysates were blotted with anti-phospho-p42/44^MAPK antibody, phosphorylation-independent p42/44^MAPK antibody, anti-phospho p46/54^JNK antibody, anti-phospho-MEK-1/2, or phosphorylation-independent MKP-1. […]
Proteins were fractionated by SDS-PAGE with an 10% acrylamide separation gel, and the separated proteins were transferred to nitrocellulose, and processed as described previously (43, 44). […] After further washing in Tris/NaCl/Tween-20, membranes were incubated for 1 h with horseradish peroxidase-linked anti-IgG secondary antibody (Bio-Rad, diluted 1:5000), and immunoreactive proteins were detected by ECL as described by the supplier. Quantitative analyses of protein levels were performed by densitometric scanning of the autoradiograms, and are representative of 3 or more independent experiments.
HepG2 cells were incubated with SB202190, and the activity of p42/44^MAPK and p46/54^JNK was determined by immunoblot analysis with antibodies that recognized the activated phosphorylated forms of these kinases in cell extracts obtained at different times.

[4] = test system: LDL receptor expression; assay: Northern blotting of LDL receptor mRNA in HepG2 cells; type: cell-based, human
Method: 5×10^5 cells were plated on day 0. On day 2, cells were refed with fresh medium. On day. 4, cells were either left untreated (0) or treated for the indicated times with SB202190 (2.5 μM) in medium containing 0.5% FBS. Total RNA was isolated and subjected to Northern blotting to determine amounts of LDL receptor, squalene synthase (SS) genes, and actin mRNAs. Autoradiographs were quantitated densitometrically. LDL receptor mRNA levels were normalized to actin mRNA levels. In the bottom panel, results are expressed as the fold induction by SB 202190 as compared with uninduced cells (set at 1). Values obtained are the averages of three separate experiments, with the standard deviations shown.
HepG2 cells were grown as described in FIG. 1. On day 4, medium was changed to either 10% LPDS alone or 10% LPDS supplemented with 25-hydroxycholesterol (2 μg/ml) and cholesterol (10 μg/ml), and after 2 hours, cells were treated with indicated concentrations of SB202190 for an additional 4 hours. Levels of LDL receptor and SS mRNAs were determined by Northern analysis and densitometry as described previously. RNA levels were normalized by comparison with levels of actin. Values obtained from cells cultured in the absence of sterols and SB202190 were set at 1. Values shown are the average of two different experiments.
Total RNA was subjected to Northern blot analysis, and the filter was hybridized with a ^32P-labeled LDL receptor probe. Values shown are the averages of two different experiments. […] Values obtained from the control cells grown in the absence of SB202190 or PD98059 were arbitrarily set at 1.
HepG2 cells were grown as described in FIG. 1. On day 4, cells cultured for 1 h in 0.5% FBS containing different amounts of cycloheximide (1 μg/ml, 2 μg/ml, and 5 μg/ml) were then incubated with SB202190 (2.5 μM) for an additional 4 h. LDL receptor and actin mRNA levels were analyzed by Northern blotting of total RNA. Values obtained from cells with no additions were arbitrarily set at 1. […] Results shown are representative of one experiment.
In FIG. 8A, HepG2 cells were pretreated for 30 minutes with the indicated concentration of the above inhibitors and then treated with […] SB202190 for an additional 4 hours. Total RNA was subjected to Northern blotting for measurement of LDL receptor mRNA levels.
Human hepatoma cell line HepG2 and its derivative HepG2-ΔRaf-1:ER cell line that stably expresses the ΔRaf-1:ER chimera were maintained as monolayer cultures in a humidified 5% CO2 atmosphere at 37° C. in Eagle's minimum essential medium (EMEM) (Bio Whittaker, Md.) supplemented with 10% fetal bovine serum (FBS) (Life Technologies Inc.), 2 mM L-glutamine, 20 units/ml penicillin and 20 μg/ml streptomycin sulphate.
Total RNA was isolated using TRIzol, and Northern blotting was done essentially as described earlier (43, 44). Briefly, 20 μg total cellular RNA was fractionated on 1% formaldehyde agarose gel and transferred to Zeta Probe membrane by capillary blotting. RNA blots were hybridized with LDL receptor and squalene synthase specific single-stranded M13 probes labeled with [α-^32P ]dCTP. Hybridized filters were washed and exposed to Kodak X-ray film. The relative intensities of specific bands were determined densitometrically within the linear range of the film on a model 300A laser densitometer (Molecular Dyanamics, Calif.) with Image Quant software. LDL receptor mRNA was normalized to squalene synthase (SS) (included in this study) or to α-actin (data not shown) mRNA level, and data for each point were plotted as the percentage of LDL receptor mRNA as compared to controls. […]

[5] = test system: p46/54^JNK; details: even at higher concentrations (100 μM); cited from earlier work

Oc1ccc(-c2nc(-c3ccc(F)cc3)c(-c3ccncc3)[nH]2)cc1 [SB202190, 4-(4-Fluorophenyl)-2-(4-hydroxyphenyl)-5-(4-pyridyl) 1H-imidazole]
effect on p42/44MAPK [1]: without effect | p42/44MAPK activity in HeLa cells [2]: induced p42/44^MAPK activity | effect on activity or levels of p46/54JNK [3]: little or no effect | LDL receptor expression in the presence of sterols ([4]; HepG2, 10% LPDS with 25-hydroxycholesterol (2 μg/ml) and cholesterol (10 μg/ml), SB202190 4 hours): slight increase in the suppressed levels of LDL receptor | most effective concentration for LDL receptor induction ([4]; HepG2 cells): 2.5 µM | time after which plateau of LDL receptor expression was reached ([4]; HepG2 cells, SB202190 2.5 μM): 8 h | time at which a significant increase in LDL receptor expression was apparent ([4]; HepG2 cells, SB202190 2.5 μM): 4 h | induction of LDL receptor expression ([4]; HepG2 cells, SB202190 alone): 6-8 fold | induction of LDL receptor expression (Northern blotting) ([4]; HepG2 cells, inhibitor alone, 0.5% FBS): induces LDL receptor expression in a time-dependent manner | effect on p46/54JNK [5]: without effect
